Data taken from patent publication US7700644B2, “Isoflavonoid dimers” (Novogen Research Pty Ltd, priority 2005, dated 2010).

Assays:
[1] = system: Neonatal foreskin fibroblasts (NFF); assay: Normal cell toxicity, MTT proliferation assay, NFF; format: cell-based, human; details: NFF fibroblast, cultured 5 days, MTT
Protocol: Neonatal foreskin fibroblasts (NFF) were a gift from Dr. Peter Parsons (Queensland Institute of Medical Research). RK-13 (rabbit kidney) cells were obtained from Miller Whalley (Macquarie University). Both cell types were cultured in RPMI supplemented with 10% FCS (CSL, Australia), penicillin (100 U/ml), streptomycin ([…]), L-glutamine (2 mM) and sodium bicarbonate (1.2 g/L), and cultured at 37° C. in a humidified atmosphere of 5% CO2.
(§1) IC50 values were determined for each cell line. Cells were seeded in 96-well plates at an appropriate cell density as determined from growth kinetics analysis. NFFs were cultured for 5 days and RK-13s for 24 hrs in the absence and presence of the test compounds. Cell proliferation was assessed after the addition of 20 μl of 3-4,5 dimethylthiazol-2,5-diphenyl tetrazolium bromide (MTT, 2.5 mg/ml in PBS, Sigma) for 3-4 hrs at 37° C. according to manufacturer's instructions. IC50 values were calculated from semi-log plots of % of control proliferation on the y-axis against log dose on the x-axis.
Duplicate cytotoxicity assays against NFF cells were conducted with dehydroequol (DHE), 4,9-dihydroxy-14,15-dimethoxy-12a-(3′,4′-dimethoxyphenyl)-3,10-dimethyl-2,11-dioxa-(1H,12H)-6b,6c,12a,16b-tetrahydronaphtho[1,2-g]chrysene (2) from Example 6.1 and cisplatin.

A2780 (Ovarian) = assay: In vitro cytotoxicity, MTT proliferation assay, A2780; format: cell-based, human
Protocol: (§2) The human pancreatic cancer cell line, HPAC (CRL-2119) was routinely cultured in 1:1 mixture DMEM (Sigma) plus Ham's F12 (Sigma) medium containing HEPES (15 mM), insulin (0.002 mg/ml), transferrin (0.005 mg/ml), hydrocortisone, (40 ng/ml), epidermal growth factor (10 ng/ml). The ovarian cancer cell line CP70 was obtained as a gift from Dr. Gil Mor (Yale University) and cultured in a 1:1 mixture DMEM plus Ham's F12 medium, and SKOV-3 was purchased from ATCC and cultured in McCoy's 5a medium. The breast cancer cell line MDA-MB-468 cultured in Leibovitz's L-15 medium.
(§3) All cultures were supplemented with 10% FCS(CSL, Australia), penicillin (100 U/ml), streptomycin ([…]), L-glutamine (2 mM) and sodium bicarbonate (1.2 g/L), and cultured at 37° C. in a humidified atmosphere of 5% CO2. All remaining cell lines were purchased from ATCC (Maryland, USA) except where noted.
as §1

[2] = system: ovarian cancer cell line CP70; assay: In vitro cytotoxicity, MTT proliferation assay, CP70; format: cell-based, human
Protocol: as §2, §3, §1

SKOV-3 (Ovarian) = assay: In vitro cytotoxicity, MTT proliferation assay, SKOV-3; format: cell-based, human; details: Ovarian SKOV-3
Protocol: as §2, §3, §1

PC3 (Prostate) = assay: In vitro cytotoxicity, MTT proliferation assay, PC3; format: cell-based, human
Protocol: as §2, §3, §1

LNCaP (Prostate) = assay: In vitro cytotoxicity, MTT proliferation assay, LNCaP; format: cell-based, human
Protocol: as §2, §3, §1

DU145 (Prostate) = assay: In vitro cytotoxicity, MTT proliferation assay, DU145; format: cell-based, human
Protocol: as §2, §3, §1

MCF-7 (Breast) = assay: In vitro cytotoxicity, MTT proliferation assay, MCF-7; format: cell-based, human; details: Breast MCF-7
Protocol: as §2, §3, §1

[3] = system: breast cancer cell line MDA-MB-468; assay: In vitro cytotoxicity, MTT proliferation assay, MDA-MB-468; format: cell-based, human; details: Breast MDA-MB-468
Protocol: as §2, §3, §1

HTB-138 (Glioma) = assay: In vitro cytotoxicity, MTT proliferation assay, HTB-138; format: cell-based, human; details: Glioma HTB-138
Protocol: as §2, §3, §1

[4] = system: human pancreatic cancer cell line, HPAC (CRL-2119); assay: In vitro cytotoxicity, MTT proliferation assay, CRL-2119; format: cell-based; details: Pancreatic CRL-2119
Protocol: as §2, §3, §1

NCI-H460 (Lung) = assay: In vitro cytotoxicity, MTT proliferation assay, NCI-H460; format: cell-based, human
Protocol: as §2, §3, §1

HT-29 (Colorectal) = assay: In vitro cytotoxicity, MTT proliferation assay, HT-29; format: cell-based, human; details: Colorectal HT-29
Protocol: as §2, §3, §1

HCT-15 (Colorectal) = assay: In vitro cytotoxicity, MTT proliferation assay, HCT-15; format: cell-based, human; details: Colorectal HCT-15
Protocol: as §2, §3, §1

MM200 (Melanoma) = assay: In vitro cytotoxicity, MTT proliferation assay, MM200; format: cell-based, human
Protocol: as §2, §3, §1

MM96L (Melanoma) = assay: In vitro cytotoxicity, MTT proliferation assay, MM96L; format: cell-based, human
Protocol: as §2, §3, §1

PGE2 synthesis = PGE2 synthesis in human monocytes incubated with LPS; format: cell-based; details: LPS 200 ng/mL, 18 hrs, dose responsive
Protocol: (§4) Human peripheral blood monocytes (from three separate individuals) were isolated from buffy coats by lymphoprep gradient separation of mononuclear cells followed by counter-current centrifugal elutriation (Demasi et al. 2000). The test compounds were dissolved in DMSO and added to fresh monocytes After 30 min, LPS was added to achieve a final concentration of 200 ng/mL. After incubation for 18 hrs at 37° C. in 5% CO2, supernatants were removed and PGE2, TXB2 (the stable hydrolysis product of TXA2) and TNFα production were measured by radioimmunoassay (RIA).

TXB2 synthesis = TXB2 synthesis in human monocytes incubated with LPS; format: cell-based; details: LPS 200 ng/mL, 18 hrs, dose responsive
Protocol: as §4

TNFα synthesis = TNFα synthesis in human monocytes incubated with LPS; format: cell-based; details: LPS 200 ng/mL, 18 hrs
Protocol: as §4

PGE2 = PGE2 in murine macrophages (RAW 264.7) stimulated with LPS; format: cell-based, mouse; details: RAW 264.7, LPS 50 ng/ml, 16 hrs, dose responsive
Protocol: (§5) The mouse macrophage cell line RAW 264.7 was cultured in DMEM supplemented with FCS, 2 mM glutamine and 50 U/ml penicillin/streptomycin. Subconfluent cells were detached from the flask by gentle scraping and 24-well plates seeded at 5×10^5 cells per well and allowed to adhere for 1 hr. Cells were then treated either test compounds (in 0.025% DMSO) or vehicle alone, and incubated for 1 hr. LPS 50 ng/ml (LPS —Sigma-Aldrich) was then added. After incubation for 16 hrs, culture media was collected and stored at −80° C. for ecosanoid and cytokine measurements using enzyme immunometric assays (PGE2 and TXB2—Cayman Chemical and TNFα—Becton Dickinson).

TXB2 = TXB2 in murine macrophages (RAW 264.7) stimulated with LPS; format: cell-based, mouse; details: RAW 264.7, LPS 50 ng/ml, 16 hrs, dose responsive
Protocol: as §5

[5] = system: UV irradiation-induced skin oedema; assay: Murine model of UV irradiation-induced skin oedema; format: in vivo, female Skh:hr-1 albino mice; details: for Change in skin thickness (mean ± SD, ×0.01 mm): dorsal skin fold, topical 0.2 ml of 20 μM at 30 min, 2 h, 4 h
Source text: Groups of 4-5 female Skh:hr-1 albino mice were irradiated with 1×3 MEdD (minimal edematous dose) of solar simulated UV radiation (SSUV). Solar-simulated ultraviolet radiation (SSUV) was provided by a planar bank of 6 UVA tube (Hitachi 40W F40T 10/BL, black light) and one UVB tube (Philips TL 40W/12RS) with radiation filtered through a sheet of 0.125 mm cellulose acetate (Eastman Chemical Products, Kingport, Tenn., USA) to give 2.96×10-4W/cm2 UVA and 1.59×10-5W/cm2 UVB. The distance of the UV lamp from the irradiance table surface was approximately 20 cm and temperature was controlled with an electric fan. During irradiation, the cages were rotated below the lights to reduce the variation in radiation intensity in different positions.
Either test compound (0.2 ml of a 20 μM solution) or vehicle (propylene glycol/ethanol/water 1:2:1) was applied to the irradiated dorsal skin at 30 min, 2 h and 4 h post-irradiation. Dorsal skin fold measurements were made with a spring micrometer prior to and at 24 hr and 48 h post-UV exposure. The difference in skin thickness pre- and post-exposure to UVR was calculated for each mouse, and the differences examined between test compound and vehicle control were analysed using an unpaired two-tailed t test.

splenocytes = assay: Murine splenocyte proliferation with mitogens (MTT), 3 day incubation with compound; format: cell-based, Male Skh-1 (hairless) mice
Protocol: Male Skh-1 (hairless) mice, six weeks old were killed by cervical dislocation. Single cell suspensions were made from their spleens and erythrocytes were lysed in buffer (0.14M NH4Cl, 17 mM Tris, pH 7.2). The remaining splenocytes were cultured in RPMI-1640 (Gibco) supplemented with 10% (v:v) FBS, 200 mM L-glutamine, penicillin/streptomycin and […] 2-mercaptoethanol. […] Samples were analysed after a 3 day incubation at 37° C. in 5% CO2 in air. To assess cell numbers, methylthiazoletetrazolium (MTT) was added to each well, incubated for a further 4 hrs and then colour developed with 0.04N HCl in isopropanol (Mosmann 1983). Plates were read at 570 nm and 630 nm. The compounds were examined several times using different mice. For each assay, the effect of test compound was compared with that of vehicle control, and the results compared using a student's t test (Prism). Statistically significant difference was determined to have occurred when p<0.05.

unstimulated splenocytes = assay: Murine splenocytes, 24 hour pre-incubation with compound then mitogenic stimulation; format: cell-based, Male Skh-1 (hairless) mice; details: 10 μM
Protocol: Male Skh-1 (hairless) mice, six weeks old were killed by cervical dislocation. Single cell suspensions were made from their spleens and erythrocytes were lysed in buffer (0.14M NH4Cl, 17 mM Tris, pH 7.2). The remaining splenocytes were cultured in RPMI-1640 (Gibco) supplemented with 10% (v:v) FBS, 200 mM L-glutamine, penicillin/streptomycin and […] 2-mercaptoethanol. Splenocytes were added to triplicate wells containing either concanavalin A (ConA, Sigma-Aldrich—0.4 μg/well), lipopolysaccharide (LPS, Sigma-Aldrich—1 μg/well) or no mitogen, as well as 10 μM of either Compound 1 or Compound 2 in DMSO, or DMSO alone. Samples were analysed after a 3 day incubation at 37° C. in 5% CO2 in air. To assess cell numbers, methylthiazoletetrazolium (MTT) was added to each well, incubated for a further 4 hrs and then colour developed with 0.04N HCl in isopropanol (Mosmann 1983). Plates were read at 570 nm and 630 nm. The compounds were examined several times using different mice. For each assay, the effect of test compound was compared with that of vehicle control, and the results compared using a student's t test (Prism). Statistically significant difference was determined to have occurred when p<0.05.
Another assay examined the effect pre-incubating unstimulated splenocytes with test compounds at 10 μM for 24 hours, removing the compounds and then assessing their ability to respond to mitogenic stimulation as described for the previous assay. Cell numbers were assessed after the 24 hr pre-incubation using MTT, and equal numbers of cells/well plated into 96 well plates as usual.

Compound: N.N.[Cl][Pt][Cl] [Cisplatin, cis-diamminedichloroplatinum]
- IC50 [1]: 9.85 ± 5 µM
- IC50 (A2780 (Ovarian)): 2.1 µM
- IC50 [2]: 10.3 µM
- IC50 (SKOV-3 (Ovarian)): 5.4 µM
- IC50 (PC3 (Prostate)): 2.11 µM
- IC50 (LNCaP (Prostate)): > 10 µM
- IC50 (DU145 (Prostate)): 2.07 µM
- IC50 (MCF-7 (Breast)): 3.69 µM
- IC50 [3]: 0.58 µM
- IC50 (HTB-138 (Glioma)): 42.3 µM
- IC50 [4]: 9.36 µM
- IC50 (NCI-H460 (Lung)): 22.3 µM
- IC50 (HT-29 (Colorectal)): 22.7 ± 35 µM
- IC50 (HCT-15 (Colorectal)): 130 ± 39 µM
- IC50 (MM200 (Melanoma)): 8.82 µM
- IC50 (MM96L (Melanoma)): 4.6 µM

Compound: COc1ccc(C23COc4cc(O)ccc4C2C2c4ccc(O)cc4OCC2c2cc(OC)c(OC)cc23)cc1OC (stereo not shown) [Cpd. 1, 4,9-Dihydroxy-14,15-dimethoxy-12a-(3′,4′-dimethoxyphenyl)-2,11-dioxa-(1H,12H)-6b,6c,12a,16b-tetrahydronaphtho[1,2-g]chrysene]
- effect on PGE2 synthesis (PGE2 synthesis): induced
- effect on TXB2 synthesis (TXB2 synthesis): inhibited
- effect on induction of TNFα (TNFα synthesis): inhibited
- effect on PGE2 (PGE2): induced
- effect on TXB2 (TXB2): inhibited
- inhibition of skin oedema ([5]; 24 hrs post-irradiation): significantly inhibited
- Change in skin thickness (mean ± SD, ×0.01 mm) ([5]; 24 hrs post-irradiation, vehicle 78 ± 23): 51 ± 14 ×0.01 mm
- Change in skin thickness (mean ± SD, ×0.01 mm) ([5]; 48 hrs post-irradiation, vehicle 147 ± 37): 117 ± 20 ×0.01 mm
- effect on B cell proliferation (splenocytes; 10 μM, LPS, 3 day incubation): no effect
- enhancement of proliferation of unstimulated splenocytes (splenocytes; 10 μM, no mitogen, significant in 5/6 assays): 25-33%
- inhibition at 10 µM (splenocytes; Mus musculus, Splenocyte, 72 h, 10 μM, ConA, 3 day incubation, significant in 4/6 assays, read-out: inhibition of T cell proliferation): 14 to 19%
- proliferation compared with vehicle control (splenocytes; higher concentrations (than 10 μM), regardless of mitogenic stimulation): reduced proliferation
- Splenocyte viability following three days' culture in the absence of mitogen (unstimulated splenocytes): not affected
- reduction in cell numbers compared with vehicle alone (unstimulated splenocytes): 73%
- proliferative response to ConA after pre-incubation (unstimulated splenocytes; compound removed): no effect
